{"source": "patent US11440903B2", "about": "“Salt form and crystal form of compound as FGFR4 inhibitor and preparation method thereof” (GUANGDONG ZHONGSHENG PHARMACEUTICAL CO., LTD, priority 2017, dated 2022)", "assay": "Solid stability test of the crystal forms (influence factors and acceleration tests; appearance, XRPD, HPLC content and impurities)", "type": "physicochemical", "settings": "for photostability (stability under light radiation), conclusion in words / stability in dark, conclusion in words / stability under acceleration conditions, conclusion in words / thermal stability (high temperature), conclusion in words: conclusion of influence factors and acceleration tests", "from_the_text": "A sample of the crystal form A was placed on the bottom of a glass sample bottle, and spread to a thin layer. The sample stored under high temperature, high humidity, and acceleration conditions was placed in a bottle of which the mouth was packed with a pierced aluminum foil to ensure the sample to be sufficiently exposed to ambient air; the sample stored under light radiation conditions was placed at room temperature in a standing bottle of which the mouth was open, the sample was exposed to a light resource, and sampled for detection after being radiated by sufficient energy. Samples were taken and analyzed at various time points, and the test results were compared with the initial test results of 0 day, the inspection items included appearance, content and impurities, and the test results are shown in Table 9.\nA sample of the crystal form B (10 mg) was placed on the bottom of a glass sample bottle, and spread to a thin layer. The sample stored under high temperature, high humidity, and acceleration conditions were placed in a bottle of which the mouth was packed with a pierced aluminum foil to ensure the sample to be sufficiently exposed to ambient air; the sample stored under light radiation conditions was placed at room temperature in a standing bottle of which the mouth was open, the sample was exposed to a light resource, and sampled for detection after being radiated by sufficient energy, the control sample stored in dark (open, the whole sample bottle was sealed with aluminum foil to keep the content in dark) and the sample stored under light radiation conditions were placed together to exclude environmental influence on the samples. Samples were taken and analyzed at various time points, and the test results were compared with the initial test results of 0 day, the inspection items included appearance, crystal form, content and impurities, the test results are shown in Table 10.\n(§1) A sample of the crystal form C was taken and placed on the bottom of a glass sample bottle, and spread to a thin layer. The sample stored under high temperature, high humidity, and acceleration conditions was placed in a bottle of which the mouth was packed with a pierced aluminum foil to ensure the sample to be sufficiently exposed to ambient air; the sample stored under light radiation conditions was placed at room temperature in a standing bottle of which the mouth was open, the sample was exposed to a light resource, and sampled for detection after being radiated by sufficient energy. Samples were taken and analyzed at various time points, and the test results were compared with the initial test results of 0 day.\nas §1, with “D” for “C”\nA sample of the crystal form E (10 mg) was taken and placed on the bottom of a glass sample bottle, and spread to a thin layer. […]", "key": {"[1]": {"settings": "Acceleration test (40° C./relative humidity of 75%, open), 1 month"}, "[2]": {"settings": "Acceleration test (40° C./relative humidity of 75%, open), 2 months"}, "[3]": {"settings": "Acceleration test (40° C./relative humidity of 75%, open), 3 months"}, "[4]": {"settings": "Acceleration test (40° C./relative humidity of 75%, open), 10 days"}, "[5]": {"settings": "Acceleration test (60° C./relative humidity of 75%, open), 1 month"}, "[6]": {"settings": "Acceleration test (60° C./relative humidity of 75%, open), 2 months"}, "[7]": {"settings": "Acceleration test (60° C./relative humidity of 75%, open), 3 months"}, "[8]": {"settings": "Acceleration test (60° C./relative humidity of 75%, open), 10 days"}, "[9]": {"settings": "High humidity (room temperature/relative humidity of 92.5%, open), 5 days"}, "[10]": {"settings": "High humidity (room temperature/relative humidity of 92.5%, open), 10 days"}, "[11]": {"settings": "High temperature (60° C., open), 5 days"}, "[12]": {"settings": "High temperature (60° C., open), 10 days"}, "[13]": {"settings": "Light radiation (total illumination: 1.2 × 10^6 Lux·hr/near ultraviolet: 200 w·hr/m^2, open), light radiation sample"}, "[14]": {"settings": "Light radiation test, control sample in dark"}}}
{"compound": "C=CC(=O)N[C@H]1COC[C@H]1Nc1ncc(/C=C(\\F)c2c(Cl)c(OC)cc(OC)c2Cl)cn1", "note": "[Crystal Form B]", "values": [{"measurement": "Appearance", "setting": "0 day (initial)", "result": "Off-white"}, {"measurement": "Content (%)", "setting": "0 day (initial)", "result": 99.21, "unit": "%"}, {"measurement": "Crystal Form (XRPD)", "setting": "0 day (initial)", "result": "form B"}, {"measurement": "Total Impurities (%)", "setting": "0 day (initial)", "result": 0.41, "unit": "%"}, {"measurement": "Appearance", "setting": "[1]", "result": "Off-white"}, {"measurement": "Content (%)", "setting": "[1]", "result": 99.49, "unit": "%"}, {"measurement": "Crystal Form (XRPD)", "setting": "[1]", "result": "form B"}, {"measurement": "Total Impurities (%)", "setting": "[1]", "result": 0.43, "unit": "%"}, {"measurement": "Appearance", "setting": "[2]", "result": "Off-white"}, {"measurement": "Crystal Form (XRPD)", "setting": "[2]", "result": "form B"}, {"measurement": "Appearance", "setting": "[3]", "result": "Off-white"}, {"measurement": "Content (%)", "setting": "[3]", "result": 96.23, "unit": "%"}, {"measurement": "Crystal Form (XRPD)", "setting": "[3]", "result": "form B"}, {"measurement": "Total Impurities (%)", "setting": "[3]", "result": 0.31, "unit": "%"}, {"measurement": "Appearance", "setting": "[4]", "result": "Off-white"}, {"measurement": "Content (%)", "setting": "[4]", "result": 101.21, "unit": "%"}, {"measurement": "Crystal Form (XRPD)", "setting": "[4]", "result": "form B"}, {"measurement": "Total Impurities (%)", "setting": "[4]", "result": 0.43, "unit": "%"}, {"measurement": "Appearance", "setting": "[5]", "result": "Off-white"}, {"measurement": "Content (%)", "setting": "[5]", "result": 98.68, "unit": "%"}, {"measurement": "Crystal Form (XRPD)", "setting": "[5]", "result": "form B"}, {"measurement": "Total Impurities (%)", "setting": "[5]", "result": 0.42, "unit": "%"}, {"measurement": "Appearance", "setting": "[6]", "result": "Off-white"}, {"measurement": "Crystal Form (XRPD)", "setting": "[6]", "result": "form B"}, {"measurement": "Appearance", "setting": "[7]", "result": "Off-white"}, {"measurement": "Content (%)", "setting": "[7]", "result": 96.71, "unit": "%"}, {"measurement": "Crystal Form (XRPD)", "setting": "[7]", "result": "form B"}, {"measurement": "Total Impurities (%)", "setting": "[7]", "result": 0.31, "unit": "%"}, {"measurement": "Appearance", "setting": "[8]", "result": "Off-white"}, {"measurement": "Content (%)", "setting": "[8]", "result": 100.91, "unit": "%"}, {"measurement": "Crystal Form (XRPD)", "setting": "[8]", "result": "form B"}, {"measurement": "Total Impurities (%)", "setting": "[8]", "result": 0.42, "unit": "%"}, {"measurement": "Appearance", "setting": "[9]", "result": "Off-white"}, {"measurement": "Crystal Form (XRPD)", "setting": "[9]", "result": "form B"}, {"measurement": "Appearance", "setting": "[10]", "result": "Off-white"}, {"measurement": "Content (%)", "setting": "[10]", "result": 101.03, "unit": "%"}, {"measurement": "Crystal Form (XRPD)", "setting": "[10]", "result": "form B"}, {"measurement": "Total Impurities (%)", "setting": "[10]", "result": 0.42, "unit": "%"}, {"measurement": "Appearance", "setting": "[11]", "result": "Off-white"}, {"measurement": "Crystal Form (XRPD)", "setting": "[11]", "result": "form B"}, {"measurement": "Appearance", "setting": "[12]", "result": "Off-white"}, {"measurement": "Content (%)", "setting": "[12]", "result": 100.74, "unit": "%"}, {"measurement": "Crystal Form (XRPD)", "setting": "[12]", "result": "form B"}, {"measurement": "Total Impurities (%)", "setting": "[12]", "result": 0.42, "unit": "%"}, {"measurement": "Appearance", "setting": "[13]", "result": "Off-white"}, {"measurement": "Content (%)", "setting": "[13]", "result": 92.90, "unit": "%"}, {"measurement": "Crystal Form (XRPD)", "setting": "[13]", "result": "form B"}, {"measurement": "Total Impurities (%)", "setting": "[13]", "result": 2.21, "unit": "%"}, {"measurement": "Appearance", "setting": "[14]", "result": "Off-white"}, {"measurement": "Content (%)", "setting": "[14]", "result": 100.23, "unit": "%"}, {"measurement": "Crystal Form (XRPD)", "setting": "[14]", "result": "form B"}, {"measurement": "Total Impurities (%)", "setting": "[14]", "result": 0.42, "unit": "%"}, {"measurement": "photostability (stability under light radiation), conclusion in words", "result": "slight impurity generation"}, {"measurement": "stability in dark, conclusion in words", "result": "good stability"}, {"measurement": "stability under acceleration conditions, conclusion in words", "result": "superior"}, {"measurement": "thermal stability (high temperature), conclusion in words", "result": "superior"}]}
{"compound": "C=CC(=O)N[C@H]1COC[C@H]1Nc1ncc(/C=C(\\F)c2c(Cl)c(OC)cc(OC)c2Cl)cn1.CS(=O)(=O)O", "note": "[Crystal Form E]", "values": [{"measurement": "Appearance", "setting": "0 day (initial)", "result": "White"}, {"measurement": "Content (%)", "setting": "0 day (initial)", "result": 101.51, "unit": "%"}, {"measurement": "Crystal Form (XRPD)", "setting": "0 day (initial)", "result": "form E"}, {"measurement": "Total Impurities (%)", "setting": "0 day (initial)", "result": 0.44, "unit": "%"}, {"measurement": "Appearance", "setting": "[1]", "result": "White"}, {"measurement": "Content (%)", "setting": "[1]", "result": 102.95, "unit": "%"}, {"measurement": "Crystal Form (XRPD)", "setting": "[1]", "result": "form E"}, {"measurement": "Total Impurities (%)", "setting": "[1]", "result": 0.33, "unit": "%"}, {"measurement": "Appearance", "setting": "[4]", "result": "White"}, {"measurement": "Content (%)", "setting": "[4]", "result": 99.58, "unit": "%"}, {"measurement": "Crystal Form (XRPD)", "setting": "[4]", "result": "form E"}, {"measurement": "Total Impurities (%)", "setting": "[4]", "result": 0.35, "unit": "%"}, {"measurement": "Appearance", "setting": "[5]", "result": "White"}, {"measurement": "Content (%)", "setting": "[5]", "result": 102.48, "unit": "%"}, {"measurement": "Crystal Form (XRPD)", "setting": "[5]", "result": "form E"}, {"measurement": "Total Impurities (%)", "setting": "[5]", "result": 0.40, "unit": "%"}, {"measurement": "Appearance", "setting": "[8]", "result": "White"}, {"measurement": "Content (%)", "setting": "[8]", "result": 100.38, "unit": "%"}, {"measurement": "Crystal Form (XRPD)", "setting": "[8]", "result": "form E"}, {"measurement": "Total Impurities (%)", "setting": "[8]", "result": 0.37, "unit": "%"}, {"measurement": "Appearance", "setting": "[9]", "result": "White"}, {"measurement": "Crystal Form (XRPD)", "setting": "[9]", "result": "form E"}, {"measurement": "Appearance", "setting": "[10]", "result": "White"}, {"measurement": "Content (%)", "setting": "[10]", "result": 101.24, "unit": "%"}, {"measurement": "Crystal Form (XRPD)", "setting": "[10]", "result": "form E"}, {"measurement": "Total Impurities (%)", "setting": "[10]", "result": 0.34, "unit": "%"}, {"measurement": "Appearance", "setting": "[11]", "result": "White"}, {"measurement": "Crystal Form (XRPD)", "setting": "[11]", "result": "form E"}, {"measurement": "Appearance", "setting": "[12]", "result": "White"}, {"measurement": "Content (%)", "setting": "[12]", "result": 100.37, "unit": "%"}, {"measurement": "Crystal Form (XRPD)", "setting": "[12]", "result": "form E"}, {"measurement": "Total Impurities (%)", "setting": "[12]", "result": 0.50, "unit": "%"}, {"measurement": "Appearance", "setting": "[13]", "result": "White"}, {"measurement": "Content (%)", "setting": "[13]", "result": 98.70, "unit": "%"}, {"measurement": "Crystal Form (XRPD)", "setting": "[13]", "result": "form E"}, {"measurement": "Total Impurities (%)", "setting": "[13]", "result": 0.49, "unit": "%"}, {"measurement": "Appearance", "setting": "[14]", "result": "White"}, {"measurement": "Content (%)", "setting": "[14]", "result": 100.87, "unit": "%"}, {"measurement": "Crystal Form (XRPD)", "setting": "[14]", "result": "form E"}, {"measurement": "Total Impurities (%)", "setting": "[14]", "result": 0.37, "unit": "%"}, {"measurement": "photostability (stability under light radiation), conclusion in words", "result": "slight impurity generation"}, {"measurement": "stability in dark, conclusion in words", "result": "good stability"}, {"measurement": "stability under acceleration conditions, conclusion in words", "result": "superior"}, {"measurement": "thermal stability (high temperature), conclusion in words", "result": "superior"}]}
